According to patent publication US6710056B2, “Amidinophenylpyruvic acid derivatives” (Ajinomoto Co., Inc., priority 1999, dated 2004):
Structures can show the parent of a compound that is named as a salt.

Key:
[1] = biological target: T1, activated human blood coagulation factor VII (Homo sapiens, UniProt P08709); assay: Determination of antagonistic activity to activated human blood coagulation factor VII; type: biochemical; settings: FVIIa mixed with tissue factor, substrate S-2288, pH 7.4, initial velocity; read-out: Antagonistic activity to activated blood coagulation factor VII (pIC50 ) (converted)
T1 construct: purchased Enzyme Research Laboratories Ltd. (FVIIa); American Diagnostica Laboratories Ltd. (tissue factor)
T1 sequence (P08709 213-466 limits assumed): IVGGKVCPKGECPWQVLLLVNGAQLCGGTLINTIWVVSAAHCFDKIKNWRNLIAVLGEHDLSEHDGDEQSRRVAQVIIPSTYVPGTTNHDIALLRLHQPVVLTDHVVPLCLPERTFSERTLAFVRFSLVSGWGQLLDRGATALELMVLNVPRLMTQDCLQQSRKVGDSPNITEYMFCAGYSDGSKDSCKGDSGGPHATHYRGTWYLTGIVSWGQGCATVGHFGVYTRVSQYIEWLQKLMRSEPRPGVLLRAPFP
T1 sequence (P08709 61-212 limits assumed): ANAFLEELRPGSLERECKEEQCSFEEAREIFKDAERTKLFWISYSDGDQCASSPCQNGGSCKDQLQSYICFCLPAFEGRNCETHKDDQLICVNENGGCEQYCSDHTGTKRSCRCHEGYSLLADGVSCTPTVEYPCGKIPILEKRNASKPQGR
T1 sequence (P13726 33-295 partner): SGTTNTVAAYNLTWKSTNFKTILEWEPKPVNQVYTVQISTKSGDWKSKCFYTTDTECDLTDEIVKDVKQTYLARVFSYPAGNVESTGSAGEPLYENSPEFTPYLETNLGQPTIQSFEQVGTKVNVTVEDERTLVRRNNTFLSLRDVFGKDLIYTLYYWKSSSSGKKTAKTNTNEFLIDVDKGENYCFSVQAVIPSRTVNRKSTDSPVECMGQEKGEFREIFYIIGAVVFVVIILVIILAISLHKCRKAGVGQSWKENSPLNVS
Description: Determination of antagonistic activity to activated human blood coagulation factor VII:
100 nM solution of activated human blood coagulation factor VII (Enzyme Research Laboratories Ltd.) in pH 7.4 tris hydrochloride buffer solution was mixed with 100 nM solution of a tissue factor (American Diagnostica Laboratories Ltd.) in pH 7.4 tris hydrochloride buffer solution in equal amounts, and the obtained mixture was left to stand at room temperature for 30 minutes. 50 μl of 50 mM tris hydrochloride buffer solution having a pH adjusted to 7.4 was added to 5 μl of an aqueous solution of a compound to be tested. Then 10 μl of the previously prepared mixture of 50 nM of each of the solutions of activated human blood coagulation factor VII and tissue factor was added to the obtained mixture, and they were incubated at room temperature for 10 minutes. Then 25 μl of 3.2 mM solution of D-isoleucyl-L-prolyl-L-arginyl-P-nitroanilide hydrochloride (S-2288, Daiichi Pure Chemicals Co., Ltd.) in pH 7.4 tris hydrochloride buffer was added to the obtained mixture. The absorbance was determined and the initial reaction velocity was calculated. A control was prepared by using 5 μl of tris hydrochloride buffer adjusted to pH 7.4 in place of the solution of the compound to be tested. The absorbance was determined with MICROPLATE READER Model 3550-UV (BIO RAD) at a wavelength of 405 nm at intervals of […]. The negative logarithm (pIC50) of the concentration of the sample compound for the 50% inhibition of the activity (initial velocity) of the activated blood coagulation factor VII was determined, and it was employed as the index of the antagonistic activity to the activated blood coagulation factor VII.

[2] = biological target: T2, human thrombin (Homo sapiens, UniProt P00734); assay: Determination of antagonistic activity to human thrombin; type: biochemical; settings: substrate S-2238, pH 8.4, initial velocity, read-out: Antagonistic activity to thrombin (pIC50) (converted)
T2 construct: solution of human thrombin (SIGMA Co. Ltd.); purchased SIGMA Co. Ltd
Description: (2) Determination of Antagonistic Activity to Human Thrombin:
130 μl of 100 mM tris hydrochloride buffer adjusted at pH 8.4 was added to 10 μl of an aqueous solution of a sample compound having antagonistic activity to human thrombin. Then 10 μl of a solution of human thrombin (SIGMA Co. Ltd.) adjusted to 2 units/ml with pH 8.4 tris hydrochloride buffer was added to the obtained mixture, and they were incubated at room temperature for 10 minutes. 50 μl of a 0.4 mM solution of D-phenylalanyl-L-pipecolyl-L-arginyl-P-nitroanilide dihydrochloride (S-2238, Daiichi Pure Chemicals Co., Ltd.) in pH 8.4 tris hydrochloride buffer was added to the obtained mixture. The absorbance was determined and the initial reaction velocity was calculated. A control was prepared by using 10 μl of tris hydrochloride buffer adjusted to pH 8.4 in place of the solution of the compound to be tested. The absorbance was determined with MICROPLATE READER Model 3550-UV (BIO RAD) at a wavelength of 405 nm at intervals of 15 seconds for 6 minutes. The negative logarithm (pIC50) of the concentration of the sample compound for the 50% inhibition of the activity (initial velocity) of thrombin was determined, and it was employed as the index of the antagonistic activity to thrombin.

Row | Structure (SMILES) | IC50 [1] [nM] | IC50 [2] [nM]
1 | N=C(N)c1ccc(CC(=O)C(=O)O)c(OC[C@@H](CCC(=O)O)NC(=O)c2ccc3nc(N)ccc3c2)c1 [Compound of Ex. 1, (4R)-4-[(2-Aminoquinoline-6-carbonyl)amino]-5-[5-amidino-2-(2-carboxy-2-oxoethyl)phenoxy]pentanoic acid bistrifluoroacetate] | 126 | > 100000
2 | N=C(N)c1ccc(CC(=O)C(=O)O)c(OCCNC(=O)c2ccc3nc(N)ccc3c2)c1 [Compound of Ex. 2, 3-[4-Amidino-2-[2-(2-aminoquinoline-6-carbonyl)aminoethoxy]phenyl]-2-oxopropionic acid bistrifluoroacetate] | 316 | 31600
3 | Cc1nc2ccc(C(=O)N[C@H](CCC(=O)O)COc3cc(C(=N)N)ccc3CC(=O)C(=O)O)cc2[nH]1 [Compound of Ex. 4, (4R)-4-[(2-Methylbenzimidazole-5-carbonyl)amino]-5-[5-amidino-2-(2-carboxy-2-oxoethyl)phenoxy]pentanoic acid bistrifluoroacetate] | 200 | > 100000
4 | N=C(N)c1ccc(-c2cccc(C(=O)N[C@H](CCC(=O)O)COc3cc(C(=N)N)ccc3CC(=O)C(=O)O)c2)cc1 [Compound of Ex. 13, (4R)-4-[[3-(4-Amidinophenyl)benzoyl]amino]-5-[5-amidino-2-(2-carboxy-2-oxoethyl)phenoxy]pentanoic acid bistrifluoroacetate] | 100 | 7940
5 | N=C(N)Nc1ccc(C(=O)N[C@H](CCC(=O)O)COc2cc(C(=N)N)ccc2CC(=O)C(=O)O)cc1 [Compound of Ex. 23, (4R)-4-[(4-Guanidinobenzoyl)amino]-5-[5-amidino-2-(2-carboxy-2-oxoethyl)phenoxy]pentanoic acid bistrifluoroacetate] | 251 | > 100000
6 | COc1ccc(-c2ccccc2)cc1C(=O)N[C@H](CCC(=O)O)COc1cc(C(=N)N)ccc1CC(=O)C(=O)O [Compound of Ex. 27, (4R)-4-(2-Methoxy-5-phenylbenzoylamino)-5-[5-amidino-2-(2-carboxy-2-oxoethyl)phenoxy]pentanoic acid trifluoroacetate] | 50.1 | –
7 | N=C(N)c1ccc(CC(=O)C(=O)O)c(OC[C@@H](CCC(=O)O)NC(=O)c2ccc3nc(N)sc3c2)c1 [Compound of Ex. 28, (4R)-4-[(2-Aminobenzothiazole-6-carbonyl)amino]-5-[5-amidino-2-(2-carboxy-2-oxoethyl)phenoxy]pentanoic acid trifluoroacetate] | 5.01 | > 100000
8 | N=C(N)c1ccc(CC(=O)C(=O)O)c(OCCNC(=O)c2ccc3nc(N)sc3c2)c1 [Compound of Ex. 39, 3-[4-Amidino-2-[2-(2-amino-benzothiazole-6-carbonyl)aminoethoxy]phenyl]-2-oxo-propionic acid trifluoroacetate] | 20 | 39800
9 | N=C(N)c1ccc(CC(=O)C(=O)O)c(OC[C@@H](CCC(=O)O)NC(=O)c2cc3c(cc2Br)CCO3)c1 [Compound of Ex. 45, (4R)-4-[(5-Bromo-2,3-dihydrobenzo[b]furan-6-carbonyl)amino]-5-[5-amidino-2-(2-carboxy-2-oxoethyl)phenoxy]pentanoic acid trifluoroacetate] | 100 | –
